According to patent publication US9611249B2, “1H-indazole-3-carboxamide compounds as glycogen synthase kinase 3 beta inhibitors” (AZIENDE CHIMICHE RIUNITE ANGELINI FRANCESCO A.C.R.A.F. …, priority 2012, dated 2017):

Assays:
[1] = biological target: PCTAIRE1 kinase (h) (Homo sapiens (Human), UniProt Q00536); assay: Kinase selectivity panel: PCTAIRE1 kinase (h); type: biochemical; details: 10 μM in duplicate, read-out: % inhibition of control values
Description: (§1) (a) Compounds 1 and 2 were tested against a panel of 60 kinases in order to assess their selectivity. The assays were chosen taking into consideration the diversity of assay families.
(§2) Tested kinases were representative of following kinase sub-families: • protein-serine/threonine kinases; • protein-tyrosine kinases; • other kinases; and • atypical kinases.
(§3) Human recombinant kinases were incubated in the presence of specific peptide substrates plus ATP for different times (10, 15, 30, 60 or 90 minutes) at 22° C. Phosphorylated substrate was detected by LANCE or HTRF technology (CISBIO, MA, USA). The compounds were tested at 10 μM in duplicate.
(§4) The results are expressed as a percentage of inhibition of control specific activity obtained in the presence of the test compounds and are reported in the following Table 5.
(§5) (b) Compounds 3, 8, 29 and 31 were tested against the same panel of 60 kinases under the same conditions described above for compounds 1 and 2.
(§6) The results are expressed as a percent of inhibition of control specific activity obtained in the presence of the test compounds and are reported in the following Table 6.

[2] = biological target: NEK1 (h) (Homo sapiens (Human), UniProt Q96PY6); assay: Kinase selectivity panel: NEK1 (h); type: biochemical; details: 10 μM in duplicate, read-out: % inhibition of control values
Description: as §1, §2, §3, §4, §5, §6

[3] = biological target: p38gamma kinase (h) (Homo sapiens (Human), UniProt P53778); assay: Kinase selectivity panel: p38gamma kinase (h); type: biochemical; details: 10 μM in duplicate, read-out: % inhibition of control values
Description: as §1, §2, §3, §4, §5, §6

[4] = biological target: DCAMKL1 (h) (Homo sapiens (Human), UniProt O15075); assay: Kinase selectivity panel: DCAMKL1 (h); type: biochemical; details: 10 μM in duplicate, read-out: % inhibition of control values
Description: as §1, §2, §3, §4, §5, §6

[5] = biological target: IRK (h) (InsR) (Homo sapiens (Human), UniProt P06213); assay: Kinase selectivity panel: IRK (h) (InsR); type: biochemical; details: 10 μM in duplicate, read-out: % inhibition of control values
Description: as §1, §2, §3, §4, §5, §6

[6] = biological target: FGFR1 kinase (h) (Homo sapiens (Human), UniProt P11362); assay: Kinase selectivity panel: FGFR1 kinase (h); type: biochemical; details: 10 μM in duplicate, read-out: % inhibition of control values
Description: as §1, §2, §3, §4, §5, §6

[7] = biological target: TAOK2 (TAO1) (h) (Homo sapiens (Human), UniProt Q9UL54); assay: Kinase selectivity panel: TAOK2 (TAO1) (h); type: biochemical; details: 10 μM in duplicate, read-out: % inhibition of control values
Description: as §1, §2, §3, §4, §5, §6

[8] = biological target: IKKalpha (h) (Homo sapiens (Human), UniProt O15111); assay: Kinase selectivity panel: IKKalpha (h); type: biochemical; details: 10 μM in duplicate, read-out: % inhibition of control values
Description: as §1, §2, §3, §4, §5, §6

[9] = biological target: AurA/Aur2 kinase (h) (Homo sapiens (Human), UniProt O14965); assay: Kinase selectivity panel: AurA/Aur2 kinase (h); type: biochemical; details: 10 μM in duplicate, read-out: % inhibition of control values
Description: as §1, §2, §3, §4, §5, §6

[10] = biological target: EphA4 kinase (h) (Homo sapiens (Human), UniProt P54764); assay: Kinase selectivity panel: EphA4 kinase (h); type: biochemical; details: 10 μM in duplicate, read-out: % inhibition of control values
Description: as §1, §2, §3, §4, §5, §6

[11] = biological target: CDC2/CDK1 (h) (cycB) (Homo sapiens (Human), UniProt P06493); assay: Kinase selectivity panel: CDC2/CDK1 (h) (cycB); type: biochemical; details: 10 μM in duplicate, read-out: % inhibition of control values
Description: as §1, §2, §3, §4, §5, §6

[12] = biological target: ERK2 (h) (P42mapk) (Homo sapiens (Human), UniProt P28482); assay: Kinase selectivity panel: ERK2 (h) (P42mapk); type: biochemical; details: 10 μM in duplicate, read-out: % inhibition of control values
Description: as §1, §2, §3, §4, §5, §6

[13] = biological target: PKA (h) (Homo sapiens (Human), UniProt P17612); assay: Kinase selectivity panel: PKA (h); type: biochemical; details: 10 μM in duplicate, read-out: % inhibition of control values
Description: as §1, §2, §3, §4, §5, §6

[14] = biological target: MNK2 (h) (Homo sapiens (Human), UniProt Q9HBH9); assay: Kinase selectivity panel: MNK2 (h); type: biochemical; details: 10 μM in duplicate, read-out: % inhibition of control values
Description: as §1, §2, §3, §4, §5, §6

[15] = biological target: smMLCK (h) (MYLK) (Homo sapiens (Human), UniProt Q15746); assay: Kinase selectivity panel: smMLCK (h) (MYLK); type: biochemical; details: 10 μM in duplicate, read-out: % inhibition of control values
Description: as §1, §2, §3, §4, §5, §6

[16] = biological target: IGF1R kinase (h) (Homo sapiens (Human), UniProt P08069); assay: Kinase selectivity panel: IGF1R kinase (h); type: biochemical; details: 10 μM in duplicate, read-out: % inhibition of control values
Description: as §1, §2, §3, §4, §5, §6

[17] = biological target: PDK1 (h) (Homo sapiens (Human), UniProt O15530); assay: Kinase selectivity panel: PDK1 (h); type: biochemical; details: 10 μM in duplicate, read-out: % inhibition of control values
Description: as §1, §2, §3, §4, §5, §6

[18] = biological target: MSK1 (h) (Homo sapiens (Human), UniProt O75582); assay: Kinase selectivity panel: MSK1 (h); type: biochemical; details: 10 μM in duplicate, read-out: % inhibition of control values
Description: as §1, §2, §3, §4, §5, §6

[19] = biological target: PKCalpha (h) (Homo sapiens (Human), UniProt P17252); assay: Kinase selectivity panel: PKCalpha (h); type: biochemical; details: 10 μM in duplicate, read-out: % inhibition of control values
Description: as §1, §2, §3, §4, §5, §6

[20] = biological target: RSK2 (h) (Homo sapiens (Human), UniProt P51812); assay: Kinase selectivity panel: RSK2 (h); type: biochemical; details: 10 μM in duplicate, read-out: % inhibition of control values
Description: as §1, §2, §3, §4, §5, §6

[21] = biological target: mTOR kinase (h) (FRAP1) (Homo sapiens (Human), UniProt P42345); assay: Kinase selectivity panel: mTOR kinase (h) (FRAP1); type: biochemical; details: 10 μM in duplicate, read-out: % inhibition of control values
Description: as §1, §2, §3, §4, §5, §6

[22] = biological target: Pim2 kinase (h) (Homo sapiens (Human), UniProt Q9P1W9); assay: Kinase selectivity panel: Pim2 kinase (h); type: biochemical; details: 10 μM in duplicate, read-out: % inhibition of control values
Description: as §1, §2, §3, §4, §5, §6

[23] = biological target: DAPK1 (h) (Homo sapiens (Human), UniProt P53355); assay: Kinase selectivity panel: DAPK1 (h); type: biochemical; details: 10 μM in duplicate, read-out: % inhibition of control values
Description: as §1, §2, §3, §4, §5, §6

[24] = biological target: GRK3/BARK2 (h) (ADRBK2) (Homo sapiens (Human), UniProt P35626); assay: Kinase selectivity panel: GRK3/BARK2 (h) (ADRBK2); type: biochemical; details: 10 μM in duplicate, read-out: % inhibition of control values
Description: as §1, §2, §3, §4, §5, §6

[25] = test system: AMPKalpha; assay: Kinase selectivity panel: AMPKalpha; type: biochemical, human; details: 10 μM in duplicate
Description: as §1, §2, §3, §4, §5, §6

[26] = biological target: Fyn kinase (h) (Homo sapiens (Human), UniProt P06241); assay: Kinase selectivity panel: Fyn kinase (h); type: biochemical; details: 10 μM in duplicate, read-out: % inhibition of control values
Description: as §1, §2, §3, §4, §5, §6

[27] = biological target: HGK (h) (MAP4K4) (Homo sapiens (Human), UniProt O95819); assay: Kinase selectivity panel: HGK (h) (MAP4K4); type: biochemical; details: 10 μM in duplicate, read-out: % inhibition of control values
Description: as §1, §2, §3, §4, §5, §6

[28] = biological target: NEK7 (h) (Homo sapiens (Human), UniProt Q8TDX7); assay: Kinase selectivity panel: NEK7 (h); type: biochemical; details: 10 μM in duplicate, read-out: % inhibition of control values
Description: as §1, §2, §3, §4, §5, §6

[29] = biological target: MEK1/MAP2K1 (h) (Homo sapiens (Human), UniProt Q02750); assay: Kinase selectivity panel: MEK1/MAP2K1 (h); type: biochemical; details: 10 μM in duplicate, read-out: % inhibition of control values
Description: as §1, §2, §3, §4, §5, §6

[30] = biological target: ERK1 (h) (Homo sapiens (Human), UniProt P27361); assay: Kinase selectivity panel: ERK1 (h); type: biochemical; details: 10 μM in duplicate, read-out: % inhibition of control values
Description: as §1, §2, §3, §4, §5, §6

[31] = biological target: p38delta kinase (h) (Homo sapiens (Human), UniProt O15264); assay: Kinase selectivity panel: p38delta kinase (h); type: biochemical; details: 10 μM in duplicate, read-out: % inhibition of control values
Description: as §1, §2, §3, §4, §5, §6

[32] = biological target: EphB4 kinase (h) (Homo sapiens (Human), UniProt P54760); assay: Kinase selectivity panel: EphB4 kinase (h); type: biochemical; details: 10 μM in duplicate, read-out: % inhibition of control values
Description: as §1, §2, §3, §4, §5, §6

[33] = biological target: IKKepsilon (h) (IKBKE) (Homo sapiens (Human), UniProt Q14164); assay: Kinase selectivity panel: IKKepsilon (h) (IKBKE); type: biochemical; details: 10 μM in duplicate, read-out: % inhibition of control values
Description: as §1, §2, §3, §4, §5, §6

Sequence of IGF1R kinase (h) (P08069 31-1367): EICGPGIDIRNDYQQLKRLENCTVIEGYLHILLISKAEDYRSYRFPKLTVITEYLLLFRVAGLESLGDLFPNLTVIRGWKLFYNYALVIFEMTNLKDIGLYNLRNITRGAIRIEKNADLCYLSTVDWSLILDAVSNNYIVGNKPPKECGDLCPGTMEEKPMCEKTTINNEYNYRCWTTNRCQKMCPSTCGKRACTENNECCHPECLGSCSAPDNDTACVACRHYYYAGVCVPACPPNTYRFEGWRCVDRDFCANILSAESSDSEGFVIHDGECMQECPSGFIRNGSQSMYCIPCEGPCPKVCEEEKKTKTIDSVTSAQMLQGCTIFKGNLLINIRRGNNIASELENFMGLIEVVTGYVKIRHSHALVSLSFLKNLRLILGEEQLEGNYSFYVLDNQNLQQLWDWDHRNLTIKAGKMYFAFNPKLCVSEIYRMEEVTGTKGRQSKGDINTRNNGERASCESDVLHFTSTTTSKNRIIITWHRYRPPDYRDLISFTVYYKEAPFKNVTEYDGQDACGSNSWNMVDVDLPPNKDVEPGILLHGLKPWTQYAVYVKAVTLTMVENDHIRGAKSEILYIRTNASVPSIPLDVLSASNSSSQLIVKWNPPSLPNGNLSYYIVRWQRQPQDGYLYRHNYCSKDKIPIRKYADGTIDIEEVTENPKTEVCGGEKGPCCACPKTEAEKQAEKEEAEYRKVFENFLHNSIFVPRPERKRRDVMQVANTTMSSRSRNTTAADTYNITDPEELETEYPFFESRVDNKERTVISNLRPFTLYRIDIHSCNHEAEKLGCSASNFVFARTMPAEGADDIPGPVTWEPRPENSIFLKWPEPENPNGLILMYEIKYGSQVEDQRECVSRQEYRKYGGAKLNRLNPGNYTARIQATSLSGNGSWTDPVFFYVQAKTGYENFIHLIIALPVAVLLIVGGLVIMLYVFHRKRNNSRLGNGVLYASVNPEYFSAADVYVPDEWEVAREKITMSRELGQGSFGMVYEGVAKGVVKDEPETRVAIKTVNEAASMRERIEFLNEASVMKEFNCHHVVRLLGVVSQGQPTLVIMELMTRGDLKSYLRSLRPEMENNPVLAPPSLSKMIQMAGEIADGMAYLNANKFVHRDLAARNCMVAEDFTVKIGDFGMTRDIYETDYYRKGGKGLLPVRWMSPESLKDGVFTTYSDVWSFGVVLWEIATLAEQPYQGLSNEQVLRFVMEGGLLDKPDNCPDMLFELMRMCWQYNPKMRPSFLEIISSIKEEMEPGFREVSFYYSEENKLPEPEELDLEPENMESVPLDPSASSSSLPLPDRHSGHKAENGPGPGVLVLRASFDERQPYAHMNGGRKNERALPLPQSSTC
Sequence of IRK (h) (InsR) (P06213 28-1382): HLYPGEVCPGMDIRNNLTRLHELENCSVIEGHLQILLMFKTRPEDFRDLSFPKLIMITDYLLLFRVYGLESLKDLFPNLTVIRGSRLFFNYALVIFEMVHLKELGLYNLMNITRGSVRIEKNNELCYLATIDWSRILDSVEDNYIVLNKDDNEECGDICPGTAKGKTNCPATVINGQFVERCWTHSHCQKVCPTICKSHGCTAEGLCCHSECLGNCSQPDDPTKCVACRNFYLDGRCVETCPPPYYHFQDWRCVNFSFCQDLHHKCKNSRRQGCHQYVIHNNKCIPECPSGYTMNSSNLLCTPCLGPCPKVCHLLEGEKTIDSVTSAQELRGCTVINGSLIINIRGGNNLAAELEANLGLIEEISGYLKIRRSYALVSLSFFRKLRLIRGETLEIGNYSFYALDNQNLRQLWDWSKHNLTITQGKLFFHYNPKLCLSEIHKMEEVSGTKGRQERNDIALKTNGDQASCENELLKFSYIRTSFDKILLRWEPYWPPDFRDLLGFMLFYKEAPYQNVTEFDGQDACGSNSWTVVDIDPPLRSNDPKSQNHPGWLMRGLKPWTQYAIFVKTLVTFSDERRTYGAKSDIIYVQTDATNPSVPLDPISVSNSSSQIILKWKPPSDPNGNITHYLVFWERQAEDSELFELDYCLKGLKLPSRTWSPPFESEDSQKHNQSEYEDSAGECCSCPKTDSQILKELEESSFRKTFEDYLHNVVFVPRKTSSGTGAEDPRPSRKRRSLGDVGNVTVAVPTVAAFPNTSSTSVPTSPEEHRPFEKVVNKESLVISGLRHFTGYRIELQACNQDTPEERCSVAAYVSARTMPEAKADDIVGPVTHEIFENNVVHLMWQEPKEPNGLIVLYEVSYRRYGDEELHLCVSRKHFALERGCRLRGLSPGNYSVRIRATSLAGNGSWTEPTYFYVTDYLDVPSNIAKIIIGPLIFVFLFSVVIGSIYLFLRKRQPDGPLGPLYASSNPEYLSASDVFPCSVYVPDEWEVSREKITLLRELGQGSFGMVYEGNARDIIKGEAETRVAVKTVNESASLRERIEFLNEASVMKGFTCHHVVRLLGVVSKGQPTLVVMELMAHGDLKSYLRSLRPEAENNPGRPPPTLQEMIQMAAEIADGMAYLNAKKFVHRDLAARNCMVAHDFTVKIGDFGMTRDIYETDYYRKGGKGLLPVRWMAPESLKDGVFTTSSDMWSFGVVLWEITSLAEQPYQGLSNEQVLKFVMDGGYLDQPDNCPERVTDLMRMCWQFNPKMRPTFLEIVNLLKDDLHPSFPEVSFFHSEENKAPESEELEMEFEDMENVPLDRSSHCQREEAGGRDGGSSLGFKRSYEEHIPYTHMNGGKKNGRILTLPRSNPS
Sequence of PDK1 (h) (O15530 whole entry): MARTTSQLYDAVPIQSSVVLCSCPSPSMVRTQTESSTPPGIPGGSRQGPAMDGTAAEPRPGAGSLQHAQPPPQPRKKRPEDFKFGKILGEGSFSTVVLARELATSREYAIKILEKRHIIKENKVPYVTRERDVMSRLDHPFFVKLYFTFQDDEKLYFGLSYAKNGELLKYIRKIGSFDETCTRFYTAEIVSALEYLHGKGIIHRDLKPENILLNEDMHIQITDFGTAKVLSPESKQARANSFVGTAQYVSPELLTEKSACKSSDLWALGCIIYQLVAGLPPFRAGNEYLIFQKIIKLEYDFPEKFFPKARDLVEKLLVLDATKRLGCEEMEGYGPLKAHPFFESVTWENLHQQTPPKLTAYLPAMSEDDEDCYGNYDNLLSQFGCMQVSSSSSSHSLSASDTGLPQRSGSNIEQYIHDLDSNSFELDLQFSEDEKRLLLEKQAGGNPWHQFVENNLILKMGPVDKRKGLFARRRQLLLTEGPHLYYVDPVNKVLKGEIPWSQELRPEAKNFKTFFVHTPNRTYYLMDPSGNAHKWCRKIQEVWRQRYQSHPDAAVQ
Sequence of PCTAIRE1 kinase (h) (Q00536 whole entry): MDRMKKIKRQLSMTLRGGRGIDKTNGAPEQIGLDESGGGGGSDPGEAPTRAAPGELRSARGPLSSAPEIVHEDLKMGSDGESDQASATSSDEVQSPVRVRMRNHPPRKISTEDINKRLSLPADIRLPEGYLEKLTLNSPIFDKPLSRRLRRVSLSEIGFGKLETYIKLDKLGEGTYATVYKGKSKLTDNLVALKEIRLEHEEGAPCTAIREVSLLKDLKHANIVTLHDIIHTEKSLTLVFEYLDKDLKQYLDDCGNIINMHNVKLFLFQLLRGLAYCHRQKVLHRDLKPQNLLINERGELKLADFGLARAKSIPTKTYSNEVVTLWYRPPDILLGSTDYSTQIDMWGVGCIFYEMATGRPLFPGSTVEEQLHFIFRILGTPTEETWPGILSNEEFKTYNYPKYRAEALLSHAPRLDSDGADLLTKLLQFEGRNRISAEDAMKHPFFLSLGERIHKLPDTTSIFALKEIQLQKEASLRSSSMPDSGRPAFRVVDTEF
Sequence of AurA/Aur2 kinase (h) (O14965 whole entry): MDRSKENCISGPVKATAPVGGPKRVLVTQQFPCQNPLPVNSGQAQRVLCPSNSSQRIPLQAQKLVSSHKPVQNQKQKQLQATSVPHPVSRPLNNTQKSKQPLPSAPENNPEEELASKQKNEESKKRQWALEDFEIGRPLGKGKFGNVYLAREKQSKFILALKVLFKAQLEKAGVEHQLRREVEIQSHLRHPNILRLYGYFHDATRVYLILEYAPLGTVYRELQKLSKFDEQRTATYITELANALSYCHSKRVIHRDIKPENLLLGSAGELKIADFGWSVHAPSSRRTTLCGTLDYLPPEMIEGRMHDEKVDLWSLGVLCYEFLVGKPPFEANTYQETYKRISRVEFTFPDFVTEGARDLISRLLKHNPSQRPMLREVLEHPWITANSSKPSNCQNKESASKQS
Sequence of Fyn kinase (h) (P06241 whole entry): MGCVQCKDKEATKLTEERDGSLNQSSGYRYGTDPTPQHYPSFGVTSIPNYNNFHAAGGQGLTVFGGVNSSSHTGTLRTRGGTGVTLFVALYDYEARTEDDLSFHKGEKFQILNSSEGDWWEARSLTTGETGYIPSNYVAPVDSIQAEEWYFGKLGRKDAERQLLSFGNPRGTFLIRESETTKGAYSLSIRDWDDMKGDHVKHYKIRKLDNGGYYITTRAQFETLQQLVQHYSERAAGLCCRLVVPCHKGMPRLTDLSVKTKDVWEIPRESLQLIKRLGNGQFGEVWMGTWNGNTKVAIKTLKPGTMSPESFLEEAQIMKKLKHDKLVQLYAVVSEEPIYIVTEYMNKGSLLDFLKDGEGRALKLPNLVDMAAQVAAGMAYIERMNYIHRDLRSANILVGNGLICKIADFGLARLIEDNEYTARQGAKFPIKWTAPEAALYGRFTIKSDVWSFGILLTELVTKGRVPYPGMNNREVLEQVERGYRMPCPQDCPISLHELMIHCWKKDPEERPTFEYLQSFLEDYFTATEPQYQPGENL
Sequence of NEK7 (h) (Q8TDX7 whole entry): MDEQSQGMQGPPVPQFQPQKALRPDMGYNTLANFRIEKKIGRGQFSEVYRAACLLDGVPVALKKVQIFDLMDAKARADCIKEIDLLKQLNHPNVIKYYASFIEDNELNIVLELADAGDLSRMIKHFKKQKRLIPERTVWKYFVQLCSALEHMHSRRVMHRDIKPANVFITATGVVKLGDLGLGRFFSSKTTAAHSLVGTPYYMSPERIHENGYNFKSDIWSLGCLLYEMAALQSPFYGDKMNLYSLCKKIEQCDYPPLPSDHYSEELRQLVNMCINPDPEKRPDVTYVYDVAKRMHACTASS

inhibition at 10 µM [1]	inhibition at 10 µM [4]	inhibition at 10 µM [5]	inhibition at 10 µM [6]	inhibition at 10 µM [7]	inhibition at 10 µM [8]	inhibition at 10 µM [9]	inhibition at 10 µM [10]	inhibition at 10 µM [11]	inhibition at 10 µM [12]	inhibition at 10 µM [13]	inhibition at 10 µM [14]	inhibition at 10 µM [16]	inhibition at 10 µM [17]	inhibition at 10 µM [19]	inhibition at 10 µM [20]	inhibition at 10 µM [22]	inhibition at 10 µM [23]	inhibition at 10 µM [24]	inhibition at 10 µM [26]	Compound	other results
22%	0%	0%	0%	3%	0%	7%	0%	7%	58%	0%	0%	0%	6%	0%	0%	3%	22%	0%	0%	COc1ccc2[nH]nc(C(=O)NCC3CCN(CC(=O)O)CC3)c2c1 [Compound 1, [4-({[(5-methoxy-1H-indazol-3-yl)-carbonyl]amino}methyl)piperidin-1-yl]acetic acid]	inhibition at 10 µM [2]: 0%; inhibition at 10 µM [3]: 0%; inhibition at 10 µM [15]: 0%; inhibition at 10 µM [18]: 7%; inhibition at 10 µM [21]: 2%; % inhibition of control values [25]: 16%; inhibition at 10 µM [27]: 8%; inhibition at 10 µM [28]: 0%; inhibition at 10 µM [29]: 24%; inhibition at 10 µM [30]: 20%; inhibition at 10 µM [31]: 0%; inhibition at 10 µM [32]: 2%; inhibition at 10 µM [33]: 0%
84%	0%	9%	8%	79%	1%	10%	0%	80%	74%	0%	4%	3%	0%	19%	4%	0%	47%	8%	0%	COCCN1CCC(CNC(=O)c2n[nH]c3ccc(-c4cccc(F)c4F)cc23)CC1 [Compound 8, 5-(2,3-difluorophenyl)-N-{[1-(2-methoxyethyl)piperidin-4-yl]methyl}-1H-indazole-3-carboxamide]	% inhibition of control values [25]: 68%; inhibition at 10 µM [27]: 72%; inhibition at 10 µM [28]: 0%; inhibition at 10 µM [30]: 66%; inhibition at 10 µM [31]: 18%; inhibition at 10 µM [32]: 0%; inhibition at 10 µM [33]: 3%
0%	0%	0%	0%	0%	0%	4%	0%	8%	34%	0%	3%	0%	0%	5%	4%	0%	3%	0%	0%	COc1ccc2[nH]nc(C(=O)NCC3CCN(CCC(=O)O)CC3)c2c1 [Compound 3]	inhibition at 10 µM [27]: 3%; inhibition at 10 µM [28]: 2%; inhibition at 10 µM [30]: 19%; inhibition at 10 µM [31]: 0%; inhibition at 10 µM [32]: 0%; inhibition at 10 µM [33]: 0%
71%	3%	0%	0%	26%	0%	1%	0%	0%	46%	2%	0%	0%	6%	0%	1%	4%	12%	0%	3%	COCCN1CCC(CNC(=O)c2n[nH]c3ccc(OC)cc23)CC1 [Compound 2, 5-methoxy-N-{[1-(2-methoxyethyl)-piperidin-4-yl]methyl}-1H-indazole-3-carboxamide]	inhibition at 10 µM [2]: 0%; inhibition at 10 µM [3]: 0%; inhibition at 10 µM [15]: 8%; inhibition at 10 µM [18]: 16%; inhibition at 10 µM [21]: 2%; % inhibition of control values [25]: 19%; inhibition at 10 µM [27]: 23%; inhibition at 10 µM [28]: 0%; inhibition at 10 µM [29]: 9%; inhibition at 10 µM [30]: 15%; inhibition at 10 µM [31]: 0%; inhibition at 10 µM [32]: 17%; inhibition at 10 µM [33]: 0%
